The record followed here is patent US20040254125A1, “Anthelmintic composition” (priority 2001, published 2004).

Holding throughout (type): in vivo
The subject of one assay is mites. The assay can be described thus: Spot-on Test (Extermination Test on Mites) in dogs. The following applies: dogs naturally infected; spot-on to back of neck, 5 mg/kg of Reference Example 1 (10 g : 3.8 g fipronil per 100 ml); examined three days after administration. How it is done: Compound (10 g) of Reference Example 1 and fipronil (3.8 g) were mixed. This mixture was dissolved in a mixed solvent (9:1) of benzyl alcohol and propylene carbonate so as to be a total volume of 100 ml, and 0.05% of BHT was further added to prepare a formulation for the spot-on test. Further, as a control, formulations were prepared by using each of the compound of Reference Example 1 solo and fipronil solo to carry out the test.
The above-described formulation for spot-on test was dropped to the back part of the neck of each dog (two dogs in each test location) naturally infected with mites at a dose of 5 mg/kg of the compound in Reference Example 1. In each dog, infection with mites was examined three days after the dropwise administration.

The subject of another assay is Dipylidium caninum. Nature of the assay: Oral Test in dogs naturally infected with Dipylidium caninum. The following applies: single oral dose in gelatine capsule (Reference Example 1 5 mg/kg, praziquantel 1.25 mg/kg), postmortem on 10th day. How it is done:
(§1) Compound (5 mg/kg) of Reference Example 1 and praziquantel (1.25 mg/kg) were encapsulated into gelatine to a predetermined amount to prepare a formulation for Oral Test. Incidentally, formulations were prepared as controls by using each of the compound of Reference Example 1 solo and fipronil solo to carry out the test.
(§2) The formulation was administered orally once to dogs (two dogs in each test location) naturally infected with Dipylidium caninum and Toxocara canis. Incidentally, the infection with Dipylidium caninum was confirmed by the excretion of proglottid of Dipylidium caninum into faeces three days before administration of drugs. The infection with Toxocara canis was confirmed by the excretion of eggs of Toxocara canis into faeces immediately before administration of drugs. On the 10th day after the administration of drugs, the dogs were subjected to postmortem to count the number of surviving Dipylidium caninum and Toxocara canis.

The test system of another assay is Toxocara canis. The assay can be described thus: Oral Test in dogs naturally infected with Toxocara canis. Particulars: single oral dose in gelatine capsule (Reference Example 1 5 mg/kg, praziquantel 1.25 mg/kg), postmortem on 10th day. How it is done:
as §1, §2

In the case of “13-[1-(4-methoxyacetylaminophenyl) cyclopentanecarbonyloxy]-5-hydroxy-milbemycin A4 [Reference Example 1]”, the “treating infection with mites” value in the assay with mites is “ineffective”. Also, in the assay with Dipylidium caninum, the “exterminating Dipylidium caninum (number of surviving parasites at postmortem)” value is given as “ineffective”. Also, the “exterminating Toxocara canis (number of surviving parasites at postmortem)” value in the assay on Toxocara canis is “effective”.
In the case of `N#Cc1nn(-c2c(Cl)cc(C(F)(F)F)cc2Cl)c(N)c1[S+]([O-])C(F)(F)F` (stereo not drawn) [fipronil], the “treating infection with mites” value in the assay with mites is on record as “ineffective”.
On to `O=C(C1CCCCC1)N1CC(=O)N2CCc3ccccc3C2C1` (stereo not drawn) [praziquantels, praziquantel], for which the “exterminating Dipylidium caninum (number of surviving parasites at postmortem)” value in the assay on Dipylidium caninum was “effective”. In addition, in the assay with Toxocara canis, the “exterminating Toxocara canis (number of surviving parasites at postmortem)” value is listed as “ineffective”.
